Data set [1] in a line: Dissolution in PBS media containing methyl cellulose polymer, Example 2. In kind it is physicochemical. The note with it: PBS media with methyl cellulose polymer, Average (Standard Error of the Mean). The text has this:
(§1) This Example described further characterization of a variety of drugs in MOF-5. Methyl cellulose polymer was included in both SG and PBS) dissolution media to inhibit precipitation of drug molecules at high supersaturation and to serve as a proxy for what would be an extensive formulation process of this supersaturating drug delivery system. […] Immediate release of CUR molecules from CUR@MOF-5 via MOF hydrolytic decomposition leads to rapid dissolution which generates high supersaturation in the first 60 min (FIGS. 5a and b). […] This immediate drug release from drug@MOF-5 composite is in contrast with controlled drug release from an amorphous drug@MOF composite with a water stable framework ([…] al., Chem. Commun. 2015, 51, 13878).

The nature of data set [2]: Dissolution in SG media containing methyl cellulose polymer, Example 2. In kind it is physicochemical. The conditions noted are these: SG media with methyl cellulose polymer, Average (Standard Error of the Mean).
Description: as §1

Data set [3] in a line: Dissolution and supersaturation in phosphate buffer saline (PBS) media, UV-vis, Example 1. The conditions noted are these: for AUC0-4 / Cmax: 37° C., Average (Standard Error of the Mean). Format: physicochemical. The procedure: (§2) To determine the dissolution and supersaturation behavior in SG and PBS media of all CUR, SUL, CUR@MOF-5 and SUL@MOF-5 composites and their physical mixture samples, UV-vis spectroscopy (which is applied to monitor the dissolution process) was used. Concentration of CUR and SUL at 37° C. was determined. FIGS. 4a-d illustrate the solubility of pure CUR, CUR@MOF-5 composite and physical mixture and pure SUL, SUL@MOF-5 composite and physical mixture in SG and PBS media respectively. […] Because the immediate release of CUR molecules (from CUR@mof-5 composite) led to rapid dissolution, which generates high supersaturation in the first 60 min. […] Subsequently, a crystallization process occurs accompanied by a decrease in CUR concentration in both media.

Data set [4] is described as follows: Dissolution and supersaturation in simulated gastric (SG) media, UV-vis, Example 1. Format: physicochemical. The conditions noted are these: 37° C., Average (Standard Error of the Mean). The method, then: as §2
For data set [5], the system named is mouse model. The conditions noted are these: oral, Ullmann's Encyclopedia; cited from earlier work.

Molecules are shown by their SMILES.

As to `COc1cc(/C=C/C(=O)CC(=O)/C=C/c2ccc(O)c(OC)c2)ccc1O` [CUR, curcumin], the AUC0-4 in data set [1] is 0.15(2) mg*h/mL; in data set [2], 0.39(6) mg*h/mL; in data set [3], 0.22(3) mg*h/mL; in data set [4] it was 0.41(6) mg*h/mL. Besides, the Cmax is reported as 0.95(4) μg/mL in data set [1], 2.12(21) μg/mL in data set [2], 1.12(7) μg/mL in data set [3] and 1.99(4) μg/mL in data set [4].
In the case of `CC1=C(CC(=O)O)c2cc(F)ccc2/C1=C\c1ccc([S+](C)[O-])cc1` (stereo not drawn) [SUL, sulindac], in data set [2], the AUC0-4 is 1.38(2) mg*h/mL and the Cmax was 6.84(7) μg/mL. Also, in data set [3], the “dissolution behavior in PBS media” value was “fully dissolved”, the AUC0-4 is reported as 15.82(21) mg*h/mL and the Cmax is given as 68.65(91) μg/mL. Further, in data set [4], the AUC0-4 was 1.32(2) mg*h/mL and the Cmax is on record as 6.01(6) μg/mL.
As to `Nc1nc(N)c2nc(-c3ccccc3)c(N)nc2n1` [TAT, triamterene], in data set [1], the AUC0-4 was 5.89(9) mg*h/mL and the Cmax is 26.89(8) μg/mL.
Regarding `O=C(O)c1ccc(C(=O)O)cc1` [terephthalic acid], in data set [5], the “lethal dose, LD50” value was “over 1 g/kg”.

The record behind these values is US20230330233A1, “COMPOSITIONS AND METHODS FOR DELIVERING PHARMACEUTICAL AGENTS” (priority 2018, published 2023).
